In US8551977B2, “Use of perifosine in combination with antimetabolites for the treatment of benign and malignant oncoses in humans and mammals” (AEterna Zentaris GmbH, priority 2002, dated 2013):

Key:
[1] = tested on: DMBA-induced rat mammary carcinoma; assay: DMBA-induced rat mammary carcinoma model; type: in vivo; conditions: initial tumor weight = 100%
Text: (§1) • In vivo Experiment: DMBA-induced rat mammary carcinoma model • Experimental Animal: Sprague-Dawley rat, female • Procedure: The mammary carcinoma was induced by a single oral dose of DMBA. The animals received perifosine from day 0 to day 14 and were observed up to day 42. The weight of the tumor mass was estimated by palpation and comparison with plastic models.
as §1, with “eight” for “weight”, “tumor was” for “tumor”

tumor cells = conditions: Patel et al. 2002; cited from earlier work
[2] = Example 1, female Sprague-Dawley rat, Perifosin 14×6.81 mg/kg p.o., Cis-platinum 4×1 mg/kg i.p.
[3] = Example 2, female Sprague-Dawley rat, Perifosine 14×6.81 mg/kg p.o., Cyclophosphamide 100 mg/kg i.v.
[4] = Example 3, female Sprague-Dawley rat, Perifosine 14×6.81 mg/kg p.o., Adriamycin 4×2.15 mg/kg i.p.

Q: For `N.N.[Cl][Pt][Cl]` [Cis-platinum, reference compound], which “Day 21, Change in % (tumor weight)” value [1, 2] is on record?
A: Its value is 410%.

Q: For `CCCCCCCCCCCCCCCCCCOP(=O)([O-])OC1CC[N+](C)(C)CC1` [Perifosin (D-21266), perifosine], which “Day 21, Change in % (tumor weight)” value [1, 2] is on record?
A: Its value is −25%.

Q: And the “Day 21, Change in % (tumor weight)” value [1, 3]?
A: Its value is −25%.

Q: And the “Day 21, Change in % (tumor weight)” value [1, 4]?
A: Its value is −25%.

Q: And the cell cycle block (tumor cells)?
A: Its cell cycle block is “blocks tumor cells in the G1-S and G2-M phase of the cell cycle”.

Q: For `COc1cccc2c1C(=O)c1c(O)c3c(c(O)c1C2=O)C[C@@](O)(C(=O)CO)C[C@@H]3O[C@H]1C[C@H](N)[C@H](O)[C@H](C)O1` [Adriamycin, reference compound], which “Day 21, Change in % (tumor weight)” value [1, 4] is on record?
A: Its value is 781%.

Q: Which “Day 21, Change in % (tumor weight)” value [1, 3] does the source give for `O=P1(N(CCCl)CCCl)NCCCO1` (stereo not shown) [Cyclophosphamide, reference compound] here?
A: The value was 500%.
